The results in this text go back to paper PMC9545004, “Transglutaminase 2 affinity and enzyme‐substrate intermediate stability as determining factors for T‐cell responses to gluten peptides in celiac disease” (European Journal of Immunology, 2022).

The target in experiment [1] is T1, Recombinant human TG2 (Homo sapiens, UniProt P21980).
T1 construct: His-tag (C); made in house; host or cells: Sf+ express insect cells (pACAB3 vector)
T1 sequence (P21980 1-687): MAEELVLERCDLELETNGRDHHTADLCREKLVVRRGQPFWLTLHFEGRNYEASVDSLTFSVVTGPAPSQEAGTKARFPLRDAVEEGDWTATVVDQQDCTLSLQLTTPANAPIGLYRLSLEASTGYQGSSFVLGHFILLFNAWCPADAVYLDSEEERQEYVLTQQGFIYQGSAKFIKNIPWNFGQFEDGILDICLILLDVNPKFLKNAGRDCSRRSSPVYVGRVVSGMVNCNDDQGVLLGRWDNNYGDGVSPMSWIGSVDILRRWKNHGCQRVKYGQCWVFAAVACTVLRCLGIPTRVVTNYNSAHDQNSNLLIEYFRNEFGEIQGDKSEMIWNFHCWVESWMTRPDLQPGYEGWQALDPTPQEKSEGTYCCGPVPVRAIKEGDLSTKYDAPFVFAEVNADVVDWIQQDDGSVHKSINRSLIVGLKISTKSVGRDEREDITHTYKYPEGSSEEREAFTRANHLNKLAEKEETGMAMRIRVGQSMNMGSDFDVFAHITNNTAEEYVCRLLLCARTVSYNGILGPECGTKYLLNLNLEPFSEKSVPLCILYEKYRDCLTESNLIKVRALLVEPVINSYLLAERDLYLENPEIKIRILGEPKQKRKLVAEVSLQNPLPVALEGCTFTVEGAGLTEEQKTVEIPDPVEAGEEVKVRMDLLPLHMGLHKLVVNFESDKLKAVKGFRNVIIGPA
Description: TG2 enzyme kinetic assay, GDH-coupled ammonia release. It counts as biochemical. As to conditions: for Km / kcat / kcat/Km: GDH-coupled, MOPS pH 7.2, TG2 50 µg/mL, 37°C, A340; for Km / kcat: mean and SD from three independent experiments. From the text: To test the influence of substrate affinity for TG2 on B‐cell uptake, we determined kinetic parameters for gluten peptides harboring the essential TG2 targeted glutamine residue within the DQ2.5‐glia‐α2, DQ2.5‐glia‐ω2, DQ2.5‐glia‐γ1, or DQ2.5‐glia‐γ3 T‐cell epitopes. To directly compare differences in TG2 affinity between the glutamines from the different peptides, we tested 9‐mer peptides harboring only one TG2 targeted glutamine residue.
Recombinant human TG2 with a C‐terminal His‐tag was expressed in Sf+ express insect cells. Briefly, human TGM2 was cloned into the pACAB3 vector, and protein was expressed for 3 days followed by lysis and purification by nickel‐nitrilotriacetic acid affinity chromatography as previously described.
Kinetic parameters for the 9‐mer peptides α2, ω2, γ1, and γ3 were measured using a coupled GDH catalyzed reaction assay performed in microtiter plates as previously described. Here, the following components were used: (1) a 5× stock MOPS buffer consisting of 1 M 3‐(N‐morpholino)propanesulfonic acid pH 7.2, 25 mM CaCl2, 5 mM ETDA, and 50 mM α‐ketoglutarate (Sigma Aldrich) in distilled water; (2) nicotinamide adenine dinucleotide hydrogen (NADH, Sigma–Aldrich); (3) GDH from beef liver (Roche); (4) gluten peptides; (5) recombinant TG2 solved in 1mM EDTA/Tris‐buffered saline. Components 1–4 were mixed in PCR‐strips (Axygen) to give final concentrations of 1x stock buffer, 1 mM NADH, 0.125 U/µL GDH, and various peptide concentrations. The mixture was preincubated in the dark for 15 min, and the reaction was started by the addition of recombinant TG2 (final concentration of 50 µg/mL) followed by transfer to a microtiter plate (Thermo Scientific). Absorbance (340 nm) was measured continuously for 50 min at 37°C using a Victor 3V Multi‐Label Microplate Reader (Perkin Elmer‐Wallac). Initial reaction velocities were calculated from the linear area of the absorbance curves by determining the change in absorbance over time compared to the change from an NADH standard curve. The Michaelis constants (K M) and turnover rates (k cat) were calculated using the k cat equation analysis tool in GraphPad Prism 8.3.0 (GraphPad Software).

The target of experiment [2] is T2, Recombinant human transglutaminase 2 (human, UniProt P21980 1-687).
T2 construct: human transglutaminase 2 (TGM2), cloned into the pACAB3 vector; Used enzymatically active with CaCl2; also called TG2; recombinant TG2
T2 sequence (looked up): T1 sequence (P21980 1-687)
Put plainly: flow cytometry on cells; recombinant TG2 (3 µg/mL), 5 µM FITC peptide and 2 mM CaCl2 in RPMI with A20 cells expressing the TG2-specific BCR 679-14-E06, 37°C; stopped with EDTA, cells washed and fixed; cell-bound FITC peptide read as delta MFI against A20 cells with the non-TG2-specific BCR 693-2-F02. As to conditions: both partners purified.

Experiment [3] addresses T2, Recombinant human transglutaminase 2.

No end group written: not given here. *: point of attachment. FITC = O=C1OC2(c3ccc(O)cc3Oc3cc(O)ccc32)c2ccc(NC(=S)*)cc21; Ahx = NCCCCCC(=O)O

On to Ac‐QP Q QPYPQQ [γ3], for which, in experiment [1], the Michaelis constant (Km) (in general, the substrate concentration at which the rate is half of its maximum) was determined as 130 ± 30 µM and the kcat is reported as 23.2±1.0 min^–1.

As to Ac‐QQSFP Q QQR [γ1], in experiment [1], the kcat/Km worked out at 100 min^–1/mM, the Michaelis-Menten constant (Km) was 240 ± 20 µM and the kcat is reported as 24.0±0.7 min^–1. In addition, the “affinity to TG2 (Km), in words” value in experiment [1] (native 9-mer peptides, compared with the other 9-mers) is recorded as “twofold lower affinity to TG2”.

As for PQP Q LPYPQ [α2], in experiment [1], the kcat/Km is on record as 197 min^–1/mM, the Km is 130 ± 20 µM and the kcat is 25.7±0.8 min^–1.

For the molecule PQP Q QPFPW [ω2], in experiment [1], the kcat/Km amounted to 276 min^–1/mM, the Km worked out at 100 ± 20 µM and the kcat is 27.6±1.0 min^–1.

B1: FITC-labeled γ1 9-mer gliadin peptide (native) (peptide)
peptide: {FITC-Ahx}-QQSFPQQQR
notes: native 9-mer from γ-gliadin; The unlabelled peptide is N-terminally acetylated; also called FITC-γ1; source: synthetic peptide
Turning to B1, the binding result in experiment [2] is on record as “binds”.

B2: α2 9-mer gliadin peptide (native, harbouring the DQ2.5-glia-α2 epitope) (peptide)
peptide: PQPQLPYPQ
Take B2: the Km of TG2 turnover, GDH-coupled ammonia release assay (formation of the thioester intermediate complex), 37°C, pH 7.2 in experiment [3] was determined as 0.13 mM.

B3: γ3 9-mer gliadin peptide (native, harbouring the TG2-targeted glutamine of the DQ2.5-glia-γ3 epitope) (peptide)
peptide: Ac-QPQQPYPQQ
Take B3: the Km of TG2 turnover, GDH-coupled ammonia release assay (formation of the thioester intermediate complex), 37°C, pH 7.2 in experiment [3] was 0.13 mM.

B4: FITC-labeled γ3 9-mer gliadin peptide (native) (peptide)
peptide: {FITC-Ahx}-QPQQPYPQQ
notes: native 9-mer from γ-gliadin; The unlabelled peptide is N-terminally acetylated; also called FITC-γ3; source: synthetic peptide
With B4, the binding result in experiment [2] is recorded as “binds”.

B5: ω2 9-mer gliadin peptide (native, harbouring the DQ2.5-glia-ω2 epitope) (peptide)
peptide: PQPQQPFPW
In the case of B5, the Km of TG2 turnover, GDH-coupled ammonia release assay (formation of the thioester intermediate complex), 37°C, pH 7.2 in experiment [3] is 0.1 mM.

B6: γ1 9-mer gliadin peptide (native, harbouring the TG2-targeted glutamine of the DQ2.5-glia-γ1 epitope) (peptide)
peptide: Ac-QQSFPQQQR
With B6, in experiment [3], the Km of TG2 turnover, GDH-coupled ammonia release assay (formation of the thioester intermediate complex), 37°C, pH 7.2 stood at 0.24 mM.

B7: FITC-labeled α2 9-mer gliadin peptide (native) (peptide)
peptide: {FITC-Ahx}-PQPQLPYPQ
notes: also called FITC-α2; source: synthetic peptide
On to B7, for which the binding result in experiment [2] is “binds”.

B8: FITC-labeled ω2 9-mer gliadin peptide (native) (peptide)
peptide: {FITC-Ahx}-PQPQQPFPW
notes: also called FITC-ω2; source: synthetic peptide
As to B8, the binding result in experiment [2] is recorded as “binds”.
